Source: ChEMBL document CHEMBL2016457, “Discovery of potent and orally bioavailable 17β-hydroxysteroid dehydrogenase type 3 inhibitors” (Bioorg Med Chem, 2012)
Active and inactive are the calls of the source. How the calls were made is not given here.

Tests used:
[1] = target: T1, 17-beta-hydroxysteroid dehydrogenase type 1 (Homo sapiens) (UniProt P14061); test: Inhibition of human recombinant 17-beta-HSD1 expressed in human HeLa cells using estrone as substrate preincubated for 30 mins prior substrate addition measured after 120 mins by spectrophotometry; type: cell-based
T1 sequence (whole entry): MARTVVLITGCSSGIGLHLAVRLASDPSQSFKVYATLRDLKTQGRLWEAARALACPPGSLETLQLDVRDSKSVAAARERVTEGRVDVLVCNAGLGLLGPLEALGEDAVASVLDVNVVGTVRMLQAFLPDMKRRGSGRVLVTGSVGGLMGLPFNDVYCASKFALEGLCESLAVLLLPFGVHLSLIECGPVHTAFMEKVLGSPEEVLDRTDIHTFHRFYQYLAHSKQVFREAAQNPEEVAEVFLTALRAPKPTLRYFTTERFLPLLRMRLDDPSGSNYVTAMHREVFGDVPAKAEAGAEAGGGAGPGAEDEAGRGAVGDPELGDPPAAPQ

[2] = target: T2, 17-beta-hydroxysteroid dehydrogenase type 2 (Homo sapiens) (UniProt P37059); test: Inhibition of human recombinant 17-beta-HSD2 expressed in human HeLa cells using estradiol as substrate preincubated for 30 mins prior substrate addition measured after 120 mins by spectrophotometry; type: cell-based
T2 sequence (whole entry): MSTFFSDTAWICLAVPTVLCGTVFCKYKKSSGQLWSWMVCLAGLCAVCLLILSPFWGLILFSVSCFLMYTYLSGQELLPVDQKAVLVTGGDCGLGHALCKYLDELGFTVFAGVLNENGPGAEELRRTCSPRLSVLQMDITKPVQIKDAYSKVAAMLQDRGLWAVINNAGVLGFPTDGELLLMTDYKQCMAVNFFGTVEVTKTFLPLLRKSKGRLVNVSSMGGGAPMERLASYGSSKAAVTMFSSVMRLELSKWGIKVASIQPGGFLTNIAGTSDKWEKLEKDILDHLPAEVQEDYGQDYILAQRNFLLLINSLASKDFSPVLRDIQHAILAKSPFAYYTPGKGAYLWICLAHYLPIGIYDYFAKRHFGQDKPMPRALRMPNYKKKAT

[3] = target: T3, Androgen receptor (Homo sapiens) (UniProt P10275); test: Agonist activity at human androgen receptor expressed in human HeLa cells assessed as DHT-induced response after 40 hrs by luciferase/beta-galactosidase-based reporter gene assay; type: functional, cell-based
T3 sequence (whole entry): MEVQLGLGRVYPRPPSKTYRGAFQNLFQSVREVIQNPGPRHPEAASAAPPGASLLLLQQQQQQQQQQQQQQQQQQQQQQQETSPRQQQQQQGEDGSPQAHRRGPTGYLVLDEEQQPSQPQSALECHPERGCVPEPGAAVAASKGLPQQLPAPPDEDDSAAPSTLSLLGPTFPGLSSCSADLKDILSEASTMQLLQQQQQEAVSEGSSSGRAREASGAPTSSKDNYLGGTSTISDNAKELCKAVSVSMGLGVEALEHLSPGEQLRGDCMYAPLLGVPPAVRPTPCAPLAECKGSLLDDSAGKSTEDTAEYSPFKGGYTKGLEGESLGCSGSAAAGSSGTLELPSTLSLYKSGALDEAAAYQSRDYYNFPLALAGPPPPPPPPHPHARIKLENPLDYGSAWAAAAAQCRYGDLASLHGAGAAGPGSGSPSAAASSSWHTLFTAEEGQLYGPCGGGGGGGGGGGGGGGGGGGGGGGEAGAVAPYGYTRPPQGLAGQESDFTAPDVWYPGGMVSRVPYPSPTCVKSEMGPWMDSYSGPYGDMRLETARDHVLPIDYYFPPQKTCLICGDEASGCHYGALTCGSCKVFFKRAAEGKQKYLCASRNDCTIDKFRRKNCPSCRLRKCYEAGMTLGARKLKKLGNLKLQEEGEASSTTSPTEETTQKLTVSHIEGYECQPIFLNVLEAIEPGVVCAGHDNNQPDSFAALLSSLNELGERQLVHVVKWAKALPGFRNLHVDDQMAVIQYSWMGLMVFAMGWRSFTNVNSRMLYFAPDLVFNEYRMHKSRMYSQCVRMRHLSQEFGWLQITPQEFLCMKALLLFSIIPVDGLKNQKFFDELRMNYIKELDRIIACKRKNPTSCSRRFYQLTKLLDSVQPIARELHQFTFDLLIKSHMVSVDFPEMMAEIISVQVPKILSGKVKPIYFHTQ

[4] = target: T4, Estrogen receptor (Homo sapiens) (UniProt P03372); test: Agonist activity at human Estrogen receptor ERalpha expressed in human HeLa cells assessed as DHT-induced response after 40 hrs by luciferase/beta-galactosidase-based reporter gene assay; type: functional, cell-based
T4 sequence (whole entry): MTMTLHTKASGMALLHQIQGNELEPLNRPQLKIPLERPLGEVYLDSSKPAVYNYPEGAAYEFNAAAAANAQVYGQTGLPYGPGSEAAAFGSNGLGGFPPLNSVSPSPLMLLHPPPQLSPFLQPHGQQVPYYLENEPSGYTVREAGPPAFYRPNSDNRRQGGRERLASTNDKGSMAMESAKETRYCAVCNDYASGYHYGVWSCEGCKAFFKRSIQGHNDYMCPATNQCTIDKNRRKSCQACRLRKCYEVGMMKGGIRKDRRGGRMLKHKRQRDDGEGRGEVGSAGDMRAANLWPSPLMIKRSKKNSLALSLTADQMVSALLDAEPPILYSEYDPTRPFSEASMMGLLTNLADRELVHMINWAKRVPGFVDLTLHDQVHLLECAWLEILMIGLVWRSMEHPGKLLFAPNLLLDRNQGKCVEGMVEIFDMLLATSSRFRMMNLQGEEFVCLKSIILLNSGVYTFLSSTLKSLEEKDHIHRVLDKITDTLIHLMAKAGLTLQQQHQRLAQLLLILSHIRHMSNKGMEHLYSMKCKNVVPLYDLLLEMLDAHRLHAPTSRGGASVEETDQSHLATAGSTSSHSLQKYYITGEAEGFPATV

[5] = target: T5, Glucocorticoid receptor (Homo sapiens) (UniProt P04150); test: Agonist activity at human Glucocorticoid receptor expressed in human HeLa cells assessed as DHT-induced response after 40 hrs by luciferase/beta-galactosidase-based reporter gene assay; type: functional, cell-based
T5 sequence (whole entry): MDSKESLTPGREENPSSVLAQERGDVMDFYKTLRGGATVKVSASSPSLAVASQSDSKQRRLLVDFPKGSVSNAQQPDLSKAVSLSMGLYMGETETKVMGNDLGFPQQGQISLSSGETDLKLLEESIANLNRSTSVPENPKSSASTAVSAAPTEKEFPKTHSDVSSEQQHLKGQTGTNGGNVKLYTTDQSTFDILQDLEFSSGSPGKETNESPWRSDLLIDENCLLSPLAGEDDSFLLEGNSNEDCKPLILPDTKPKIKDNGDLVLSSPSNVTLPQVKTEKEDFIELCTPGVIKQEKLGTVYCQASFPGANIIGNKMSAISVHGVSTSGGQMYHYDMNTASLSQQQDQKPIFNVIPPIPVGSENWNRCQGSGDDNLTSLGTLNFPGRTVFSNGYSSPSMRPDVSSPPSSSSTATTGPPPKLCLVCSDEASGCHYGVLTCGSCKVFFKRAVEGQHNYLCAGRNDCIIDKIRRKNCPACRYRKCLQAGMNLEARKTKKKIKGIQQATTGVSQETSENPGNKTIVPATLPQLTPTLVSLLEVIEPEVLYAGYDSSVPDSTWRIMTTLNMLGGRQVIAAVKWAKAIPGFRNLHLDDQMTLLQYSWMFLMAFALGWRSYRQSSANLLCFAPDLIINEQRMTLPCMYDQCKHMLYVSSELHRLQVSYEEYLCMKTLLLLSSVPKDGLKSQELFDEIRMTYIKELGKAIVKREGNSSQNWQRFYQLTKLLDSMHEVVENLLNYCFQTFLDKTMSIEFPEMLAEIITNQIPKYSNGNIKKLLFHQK

[6] = target: T3, Androgen receptor (Homo sapiens); test: Antagonist activity at human androgen receptor expressed in human HeLa cells assessed as inhibition of DHT-induced response after 40 hrs by luciferase/beta-galactosidase-based reporter gene assay; type: functional, cell-based
[7] = target: T4, Estrogen receptor (Homo sapiens); test: Antagonist activity at human ERalpha receptor expressed in human HeLa cells assessed as inhibition of DHT-induced response after 40 hrs by luciferase/beta-galactosidase-based reporter gene assay; type: functional, cell-based
[8] = target: T5, Glucocorticoid receptor (Homo sapiens); test: Antagonist activity at human GR receptor expressed in human HeLa cells assessed as inhibition of DHT-induced response after 40 hrs by luciferase/beta-galactosidase-based reporter gene assay; type: functional, cell-based
[9] = target: T6, 17-beta-hydroxysteroid dehydrogenase type 3 (Homo sapiens, UniProt P37058)
T6 sequence (P37058 whole entry): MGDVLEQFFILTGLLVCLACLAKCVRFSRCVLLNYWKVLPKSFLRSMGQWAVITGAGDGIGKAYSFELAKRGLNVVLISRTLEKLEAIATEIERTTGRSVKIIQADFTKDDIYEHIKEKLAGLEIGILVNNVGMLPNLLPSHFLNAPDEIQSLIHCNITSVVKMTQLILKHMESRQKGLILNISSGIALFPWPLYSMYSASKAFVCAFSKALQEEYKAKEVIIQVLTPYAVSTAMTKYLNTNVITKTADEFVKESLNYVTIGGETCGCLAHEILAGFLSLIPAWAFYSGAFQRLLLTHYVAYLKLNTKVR
Description: Inhibition of human recombinant 17-beta-HSD3 expressed in human HeLa cells using androstenedione as substrate preincubated for 30 mins prior substrate addition measured after 120 mins by spectrophotometry

SMILES | inhibition [1] | inhibition [2] | Activity [3] | Activity [4] | Activity [5] | Activity [6] | Activity [7] | Activity [8] | IC50 [9] [nM]
N#Cc1ccc(N2C(=O)/C(=C/c3ccc(O)c(Br)c3)OC2=S)cc1 | inactive | inactive | inactive | inactive | inactive | inactive | inactive | inactive | 19
CS(=O)(=O)c1ccc(N2C(=O)O/C(=C\c3ccc(O)c(Br)c3)C2=O)cc1 | inactive | inactive | inactive | inactive | inactive | inactive | inactive | inactive | 900
CSc1ccc(N2C(=O)O/C(=C\c3ccc(O)c(Br)c3)C2=O)cc1 | inactive | inactive | inactive | inactive | inactive | inactive | inactive | inactive | 90
O=C1O/C(=C\c2ccc(O)c(Br)c2)C(=O)N1c1ccc(F)nc1 | inactive | inactive | inactive | inactive | inactive | inactive | inactive | inactive | 21
O=C1O/C(=C\c2ccc(O)c(Br)c2)C(=O)N1c1cccnc1 | inactive | inactive | inactive | inactive | inactive | inactive | inactive | inactive | 22
COCCN1C(=O)/C(=C/c2ccc(O)c(Br)c2)SC1=S | inactive | inactive | inactive | inactive | inactive | inactive | inactive | inactive | 190
Cc1ccc(N2C(=O)O/C(=C\c3ccc(O)c(Br)c3)C2=O)cn1 | inactive | inactive | inactive | inactive | inactive | inactive | inactive | inactive | 67

The next compounds have a lower IC50 [9] than those just listed; values first:

inhibition [1] | inhibition [2] | Activity [3] | Activity [4] | Activity [5] | Activity [6] | Activity [7] | Activity [8] | IC50 [9] [nM] | SMILES
inactive | inactive | inactive | inactive | inactive | inactive | inactive | inactive | 5 | COc1ccc(N2C(=O)/C(=C/c3cc(F)c(O)c(F)c3)OC2=S)cc1
inactive | inactive | inactive | inactive | inactive | inactive | inactive | inactive | 6 | O=C1/C(=C/c2ccc(O)c(Br)c2)OC(=S)N1c1ccccc1
inactive | inactive | inactive | inactive | inactive | inactive | inactive | inactive | 6 | O=C1/C(=C/c2ccc(O)c(Br)c2)OC(=S)N1c1ccc(Cl)cc1
inactive | inactive | inactive | inactive | inactive | inactive | inactive | inactive | 2 | Cc1ccc(N2C(=O)/C(=C/c3ccc(O)c(Br)c3)OC2=S)cc1
